“Also recorded” adds a separate entry of the source.
Assays:
[1] = test system: PC-12 cells; experiment: Glutamate toxicity in PC-12 cells (trypan blue exclusion); assay type: cell-based, rat
Method: (§1) […] cells (from a rat Pheochromocytoma) were cultured on poly-D-Lysine coated tissue culture plastic in DMEM containing 10% FBS and 5% Horse serum. To induce the neuronal phenotype in PC-12 cells, serum was removed and the cells were treated with NGF (50 ng/ml). Cells were grown for 7 days in the presence of the NGF then used for experiments.
PC-12 cells were cultured as described above. 24 hr prior to insult, cells were treated with rhEPO at concentrations ranging from 1 pm to 1 nm. On the day of the experiment, cells were exposed to 200 μM glutamate for 30 min. Cells were then washed 2 times with fresh media to remove the glutamate and cultured in fresh media containing NGF but no EPO. After 24 hr cells were assayed for viability using a trypan blue exclusion assay. Briefly, media was removed and the cells were incubated in 0.4% Trypan Blue for 5 min. Cells were then washed gently with PBS, then fixed with 10% formalin. Cell viability was determined by counting the total number of cells vs. the number of trypan blue positive (dead) cells.

[2] = test system: PC-12 cells; experiment: NGF withdrawal in PC-12 cells; assay type: cell-based, rat
Method: as §1
PC-12 cells were cultured as described above in a 96 well poly-d-lysine coated multi-well plate and treated with rhEPO (1 pm to 10 nm) for 24 hr prior to NGF withdrawal. On the day of the experiment the cells were washed with buffer 3 times to remove NGF and then cultured in fresh media without NGF. Immediately following NGF washout cells were counted (t=0) to determine the number of living cells. Cell viability was based on morphological characteristics including phase brightness, presence of axons, and absence of blebbing. Cell counts were performed at 12 hr, 24 hr, 48 hr and 72 hr and the number of viable cells were scored.

[3] = test system: rat hippocampal cultures; experiment: Neurite outgrowth assay (MAP2-FITC immunofluorescence), hippocampal cultures; assay type: cell-based
Excerpt: (§2) Dissociated hippocampal and cortical cell cultures were established from embryonic day 18 rat fetuses as previously described (Mattson et al., 1994). Briefly, fetuses were removed via cesarean section from pregnant moms (Sprague-Dawley) anesthetized with halothane according to the AVMA Panel on Euthanasia. Pups were decapitated and the brains were removed and placed in HEPES-buffered Hank's Balanced Salt solution (HBSS; Gibco). The hippocampi and cortices were dissected out and pooled according to tissue-type. Tissue was trypsinized for 15 min (1 mg/ml trypsin-HBSS; Worthington), rinsed with fresh HBSS, incubated in trypsin inhibitor (1 mg/ml; Sigma) for 5 min, rinsed again with fresh HBSS and then triturated in 1 ml fresh HBSS with a fire-polished glass pipette. Dissociated cells were seeded at 30,000 cells/well onto poly-D-lysine coated 96-well plates (Collaborative BioScience). Each well contained 100 μl of Eagle's Minimal Essential Media (MEM; Gibco) supplemented with 26 mM NaHCO3 (Sigma), 56 mM glucose (Sigma), 15 mM KCl (Sigma), 1 mM sodium pyruvate (Sigma), 1.1 mM L-glutamine (Sigma), 10% (v/v) heat-inactivated fetal bovine serum (Hyclone), and 0.001% gentamicin sulfate (Sigma) (pH 7.4). Cells were allowed to attach for 24 h in a humidified 37° C. 5% CO2 incubator before experimental treatment. The culture media was aspirated and exchanged with fresh media every three days.
(§3) Twenty-four hours after plating, cultures were treated with vehicle (PBS+0.1% BSA), 100 ng of various growth factors (brain derived neurotrophic factor (BDNF; Promega), glial-derived neurotrophic factor (GDNF; Promega), nerve growth factor (NGF; Boehringer Mannheim), basic fibroblast growth factor (bFGF; Boehringer Mannheim), insulin-like growth factor-1 (IGF-1; Boehringer Mannheim), neurotrophin-3 (NT3; Calbiochem), neurotrophin-4 (NT4; Calbiochem), ciliary neurotrophic factor (CNTF; Calbiochem), epidermal growth factor (EGF; Calbiochem), vascular endothelial growth factor (VEGF; Calbiochem)), or rhEPO (prepared same as above; 10 fM-10 nM)). Each treatment condition was run in quadruplicate or octuplicate. On the third day in culture, the media was aspirated off and replaced with fresh media and test compound. At one week in culture, the cells were fixed with 10% phosphate-buffered formalin for 15 min, then rinsed with DPBS (Sigma) and placed in blocking serum for 30 min (horse serum; 1:50 dilution in DPBS; Vector Labs). Cultures were rinsed again with DPBS and then incubated in primary antibody for 2 hr (microtubule-associated protein-2 (MAP-2) is a selective marker for dendritic processes; anti-mouse monoclonal (Chemicon); 1:1000 dilution of MAP-2 in antibody diluent (Zymed)). Negative control wells were incubated in antibody diluent alone. Background signal was determined by blank wells (cell-free) incubated with or without antibody. Cultures were rinsed again with DPBS and then placed in fluorescein for 1 hr (FITC; anti-mouse IgG; rat adsorbed; 1:50 dilution in DPBS; Vector Labs). Cultures were rinsed a final time with DPBS and then the plates were read on a Cytofluor 4000 fluorescence plate reader. Neurite outgrowth was expressed as percent change from control (vehicle; mean fluorescence±SD).
(§4) Dissociated hippocampal and cortical cell cultures were established from embryonic day 18 rat fetuses as previously described (Mattson et al., 1994). Briefly, fetuses were removed via cesarean section from pregnant moms (Sprague-Dawley) anesthetized with halothane according to the AVMA Panel on Euthanasia. Pups were decapitated and the brains were removed and placed in HEPES-buffered Hank's Balanced Salt solution (HBSS; Gibco). The hippocampi and cortices were dissected out and pooled according to tissue-type. […]

[4] = test system: rat cerebral cortical cultures; experiment: Neurite outgrowth assay (MAP2-FITC immunofluorescence), cortical cultures; assay type: cell-based
Excerpt: as §2, §3, §4

[5] = Plasma determinations by EPO ELISA; assay type: in vivo, rat; settings: terminal sample
Excerpt: Plasma Determinations: Blood samples were collected from each rat via the orbital sinus at the time of sacrifice. Plasma was separated out, frozen and analyzed by EPO ELISA for determination of plasma concentration (U/ml).

With “rhEPO: purified, recombinant human EPO (rhEPO), currently formulated and distributed under the trademarks of EPREX, ERYPO, or PROCRIT” the “neuroprotective effect at 1 nm, glutamate toxicity” value ([1]; 1 nm) was “no significant effect”, the “cell survival after glutamate (in words)” value ([1]; 1 to 10 pm given 24 hours prior to glutamate (200 um), p<0.001) was “significantly increased cell survival” and the “cell death induced by glutamate toxicity (in words)” value ([1]; 24 hr pre-treatment) was “significant decrease in cell death”. For the same substance, the “peak concentration for the neuroprotective effect, glutamate toxicity” value ([1]; 24 hr pre-treatment, 200 μM glutamate) was 10 pm, the “neuroprotective effect at 1 nm, growth factor withdrawal” value ([2]; 1 nm) was “no significant effect” and the “peak / optimum concentration for the neuroprotective effect, NGF withdrawal” value ([2]; 24 hr pre-treatment before NGF withdrawal) was 10 pm. For the same substance, the “viable cells / cell death after NGF withdrawal (in words)” value ([2]; 24 hr pre-treatment, 12 hr, 24 hr, 48 hr and 72 hr after withdrawal, listed as EPO) was “significant decrease in cell death; also recorded: increased the number of viable cells at each time point”, the “neurite outgrowth response over control, hippocampal cultures” value ([3]; Example 3, one week in culture) was 12-44% and the “neurite outgrowth in rat hippocampal cultures (in words)” value ([3]; figure legends) was “promotes neurite outgrowth”. For the same substance, the “neurite outgrowth promoting activity in hippocampus compared with growth factors” value ([3]; growth factors at 100 ng) was “superior to several growth factors including BDNF, NGF and VEGF”, the “neurite outgrowth response over control, cortical cultures” value ([4]; Example 3, one week in culture) was 15-29% and the “neurite outgrowth in rat cerebral cortical cultures (in words)” value ([4]; figure legends) was “promotes neurite outgrowth”. For the same substance, the “ability to increase neurite outgrowth in cortical cultures compared with known growth factors” value ([4]; growth factors at 100 ng) was “greater than or equal to that of known growth factors”, the “plasma concentrations, Study I” value ([5]; continuous infusion) was “correlated with the protective effect” and the “plasma concentrations, Study II” value ([5]; single iv bolus 1000, 2500 or 5000 U/kg) was “low in each group”.

From patent US20090170759A1, “NEUROPROTECTIVE PEPTIDES” (priority 2007, published 2009)
